Earlier results as cited in PMC7135267, “Modified linear regression predicts drug-target interactions accurately” (PLoS ONE, 2020).

Test system: CFTR
Details: rats, caffeine intake

In the case of `Cn1c(=O)c2c(ncn2C)n(C)c1=O` [D00528, Caffeine], the “CFTR chloride secretion in intestine” value is listed as “increased”.
